Five compounds from ChEMBL document CHEMBL5143577, “Development of a degrader against oncogenic fusion protein FGFR3-TACC3” (Bioorg Med Chem Lett, 2022) can be followed below.

Activity calls are given as the source filed them. The rule behind the calls is not given here.

Assay [1] relates to RT-4. Description: Sniper activity at FGFR3-TACC3 in human RT4 cells assessed as decrease in FGFR3-TACC3 protein level at 3 uM after 6 hrs. The assay is classed as cell-based.
The test system of assay [2] is RT-4. Description: Antiproliferative activity against human RT-4 cells expressing FGFR3-TACC3 at 3 uM measured after 72 hrs by WST assay. It is filed as functional, cell-based.
Assay [3] concerns RT-4. Description: Sniper activity at FGFR3-TACC3 in human RT4 cells assessed as decrease in FGFR3-TACC3 protein level at 3 uM after 6 hrs in presence of siRNA XIAP. It is filed as cell-based.
Assay [4] deals with RT-4. Description: Sniper activity at FGFR3-TACC3 in human RT4 cells assessed as decrease in FGFR3-TACC3 protein level at 30 uM after 6 hrs. It is filed as cell-based.

`CN[C@@H](C)C(=O)N[C@H](C(=O)N1CCC[C@H]1c1nc(C(=O)c2cccc(OCCOCCOCCOCCNC(=O)c3ccc(-c4nc(CNc5nccc(NCC(C)C)n5)cs4)cc3)c2)cs1)C1CCCCC1`: the outcome in assay [1] was Active.
As for `CN[C@@H](C)C(=O)N[C@H](C(=O)N1C[C@@H](Oc2cccc(OCCOCCOCCOCCOCCNC(=O)c3ccc(-c4nc(CNc5nccc(NCC(C)C)n5)cs4)cc3)c2)CC1C(=O)N[C@@H]1CCCc2ccccc21)C1CCCCC1` (some centres not stated), the result in assay [1] was Active.
Regarding `CN[C@@H](C)C(=O)N[C@H](C(=O)N1C[C@@H](Oc2cccc(OCCOCCOCCOCCNC(=O)c3ccc(-c4nc(CNc5nccc(NCC(C)C)n5)cs4)cc3)c2)C[C@H]1C(=O)N[C@@H]1CCCc2ccccc21)C1CCCCC1`, the outcome in assay [1] was Active.
On to `CN[C@@H](C)C(=O)N[C@H](C(=O)N1CCC[C@H]1c1nc(C(=O)c2cccc(OCCOCCOCCNC(=O)c3ccc(-c4nc(CNc5nccc(NCC(C)C)n5)cs4)cc3)c2)cs1)C1CCCCC1`, for which the outcome in assay [2], in assay [1] and in assay [3] was Active.
Turning to `CC(C)CNc1ccnc(NCc2csc(-c3ccc(C(=O)NCCOCCOCCOCCNC(=O)[C@H](CC(C)C)NC(=O)[C@@H](O)[C@H](N)Cc4ccccc4)cc3)n2)n1`, in assay [4], the outcome was Active.
